compound: CC1=C(N=C(N=C1N)[C@H](CC(=O)N)NC[C@@H](C(=O)N)N)C(=O)N[C@@H]([C@H](C2=CN=CN2)OC3C(C(C(C(O3)CO)O)O)OC4C(C(C(C(O4)CO)O)OC(=O)N)O)C(=O)N[C@H](C)[C@H]([C@H](C)C(=O)N[C@@H]([C@@H](C)O)C(=O)NCCC5=NC(=CS5)C6=NC(=CS6)C(=O)NCCC[S+](C)C)O [Bleomycin] + Nc1nc2[nH]cc(CCc3ccc(C(=O)N[C@@H](CCC(=O)O)C(=O)O)cc3)c2c(=O)[nH]1 [Pemetrexed] (partner 0.2 µM); test: relative viability (nuclei count vs DMSO), 5 days (fraction); higher = more cells survive; details: first compound 0.01 µM; main component drawn
Outline: (§1)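 Lung cancer cell lines were seeded in 1536-well plates and dosed by pin tool the next day, with either a single drug or a fixed anchor-drug dose combined with five library-drug doses (not always all listed) spaced in √10 steps. Five days later, one step fixed the cells and stained their nuclei (final 0.05% Triton X-100, 1% formaldehyde, 1 ug/ml Hoechst), and nuclei were counted on 4× images. Relative viability is the nuclei count in treated wells divided by the count in vehicle wells, and each value is the median of duplicate plates.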

Cell Line	relative viability
NCI-H522	0.844
NCI-H838	0.247
NCI-H1650	0.358
NCI-H1993	0.649
NCI-H2087	0.645
PC-14	0.113
LCLC-103H	0.452
NCI-H596	0.474
NCI-H2228	0.317
EMC-BAC-2	0.416
NCI-H2085	0.878
HCC-366	0.169
NCI-H1666	0.72
NCI-H647	0.198
LK-2	0.243
NCI-H2126	0.728
NCI-H2342	0.837
SK-MES-1	0.767
H3255	0.608
COR-L23	0.191
NCI-H2170	0.255
HCC-44	0.625
SW 900	0.469
NCI-H1648	0.669
NCI-H1395	0.64
NCI-H1792	0.71
NCI-H1793	0.739
NCI-H1563	0.618
NCI-H1944	0.36
NCI-H358	0.164

same assay, conditions: first compound 0.03162 µM; main component drawn

Cell Line	relative viability
NCI-H522	0.815
NCI-H838	0.227
NCI-H1650	0.214
NCI-H1993	0.584
NCI-H2087	0.619
PC-14	0.118
LCLC-103H	0.443
NCI-H596	0.46
NCI-H2228	0.291
EMC-BAC-2	0.4
NCI-H2085	0.954
HCC-366	0.207
NCI-H1666	0.659
NCI-H647	0.153
LK-2	0.252
NCI-H2126	0.774
NCI-H2342	0.759
SK-MES-1	0.899
H3255	0.538
COR-L23	0.203
NCI-H2170	0.263
HCC-44	0.666
SW 900	0.461
NCI-H1648	0.614
NCI-H1395	0.702
NCI-H1792	0.756
NCI-H1793	0.729
NCI-H1563	0.915
NCI-H1944	0.398
NCI-H358	0.197

same assay, conditions: first compound 0.1 µM; main component drawn

Cell Line	relative viability
NCI-H522	0.85
NCI-H838	0.232
NCI-H1650	0.189
NCI-H1993	0.496
NCI-H2087	0.622
PC-14	0.103
LCLC-103H	0.455
NCI-H596	0.465
NCI-H2228	0.263
EMC-BAC-2	0.419
NCI-H2085	0.811
HCC-366	0.178
NCI-H1666	0.804
NCI-H647	0.196
LK-2	0.204
NCI-H2126	0.629
NCI-H2342	0.685
SK-MES-1	0.807
H3255	0.507
COR-L23	0.193
NCI-H2170	0.244
HCC-44	0.586
SW 900	0.391
NCI-H1648	0.508
NCI-H1395	0.566
NCI-H1792	0.87
NCI-H1793	0.692
NCI-H1563	0.691
NCI-H1944	0.313
NCI-H358	0.168

same assay, conditions: first compound 0.3162 µM; main component drawn

Cell Line	relative viability
NCI-H522	0.49
NCI-H838	0.19
NCI-H1650	0.15
NCI-H1993	0.469
NCI-H2087	0.241
PC-14	0.0537
LCLC-103H	0.487
NCI-H596	0.305
NCI-H2228	0.199
EMC-BAC-2	0.476
NCI-H2085	0.347
HCC-366	0.0708
NCI-H1666	0.578
NCI-H647	0.0716
LK-2	0.146
NCI-H2126	0.567
NCI-H2342	0.539
SK-MES-1	0.379
H3255	0.479
COR-L23	0.153
NCI-H2170	0.235
HCC-44	0.526
SW 900	0.2
NCI-H1648	0.483
NCI-H1395	0.4
NCI-H1792	0.426
NCI-H1793	0.134
NCI-H1563	0.54
NCI-H1944	0.216
NCI-H358	0.183

same assay, conditions: first compound 1 µM; main component drawn

Cell Line	relative viability
NCI-H522	0.321
NCI-H838	0.19
NCI-H1650	0.128
NCI-H1993	0.514
NCI-H2087	0.186
PC-14	0.0242
LCLC-103H	0.419
NCI-H596	0.332
NCI-H2228	0.185
EMC-BAC-2	0.324
NCI-H2085	0.447
HCC-366	0.0498
NCI-H1666	0.673
NCI-H647	0.0627
LK-2	0.133
NCI-H2126	0.611
NCI-H2342	0.62
SK-MES-1	0.213
H3255	0.405
COR-L23	0.146
NCI-H2170	0.234
HCC-44	0.401
SW 900	0.191
NCI-H1648	0.469
NCI-H1395	0.371
NCI-H1792	0.312
NCI-H1793	0.191
NCI-H1563	0.575
NCI-H1944	0.157
NCI-H358	0.175

compound: COc1cc([C@@H]2c3cc4c(cc3[C@@H](O[C@@H]3O[C@@H]5CO[C@@H](C)O[C@H]5[C@H](O)[C@H]3O)[C@H]3COC(=O)[C@H]23)OCO4)cc(OC)c1O [Etoposide] + CC(C)C[C@H](NC(=O)[C@H](Cc1ccccc1)NC(=O)c1cnccn1)B(O)O [Bortezomib] (partner 0.002 µM); test: as above; details: first compound 0.01 µM
Outline: as §1

Cell Line	relative viability
NCI-H838	0.641
NCI-H1650	0.201
EBC-1	0.528
NCI-H1703	0.433
NCI-H1993	0.954
PC-14	0.9
LCLC-103H	1.1
NCI-H596	0.798
NCI-H2228	1
EMC-BAC-2	1.07
NCI-H2085	1.08
Calu-6	1.06
HCC-366	1.04
NCI-H1666	0.949
NCI-H647	0.807
NCI-H2126	1.19
H3255	0.831
COR-L23	0.962
IA-LM	0.821
HCC-44	1.01
NCI-H727	0.764
NCI-H1299	1.03
NCI-H1792	0.899
NCI-H1563	0.802
ABC-1	0.301

same assay, conditions: first compound 0.03162 µM

Cell Line	relative viability
NCI-H838	0.978
NCI-H1650	0.204
EBC-1	0.503
NCI-H1703	0.519
NCI-H1993	1.12
NCI-H2087	0.888
PC-14	1.08
LCLC-103H	1.24
NCI-H596	1.1
NCI-H2228	1.17
EMC-BAC-2	1.03
NCI-H2085	1.08
Calu-6	0.973
HCC-366	1.03
NCI-H1666	0.71
NCI-H647	1.4
NCI-H2126	1.09
H3255	0.777
COR-L23	0.937
IA-LM	0.929
HCC-44	0.905
NCI-H727	1.07
NCI-H1299	0.999
NCI-H1792	0.878
NCI-H1563	0.866
ABC-1	0.33

same assay, conditions: first compound 0.1 µM

Cell Line	relative viability
NCI-H838	0.659
NCI-H1650	0.208
EBC-1	0.55
NCI-H1703	0.294
NCI-H1993	0.631
NCI-H2087	0.864
PC-14	0.918
LCLC-103H	0.93
NCI-H2228	0.731
EMC-BAC-2	0.729
NCI-H2085	0.953
Calu-6	1.03
HCC-366	0.518
NCI-H1666	0.528
NCI-H647	0.72
NCI-H2126	0.801
H3255	0.516
COR-L23	0.804
IA-LM	0.466
HCC-44	1.02
NCI-H727	0.536
NCI-H1299	1.11
NCI-H1792	0.819
NCI-H1563	0.781
ABC-1	0.261

same assay, conditions: first compound 0.3162 µM

Cell Line	relative viability
NCI-H838	0.624
NCI-H1650	0.181
EBC-1	0.581
NCI-H1703	0.22
NCI-H1993	0.919
NCI-H2087	0.641
PC-14	0.687
LCLC-103H	0.956
NCI-H596	0.968
NCI-H2228	0.717
EMC-BAC-2	0.452
NCI-H2085	0.674
Calu-6	0.693
HCC-366	0.135
NCI-H1666	0.294
NCI-H647	0.298
NCI-H2126	1
H3255	0.591
COR-L23	0.693
IA-LM	0.837
HCC-44	0.781
NCI-H727	0.857
NCI-H1299	0.957
NCI-H1792	0.897
NCI-H1563	0.618
ABC-1	0.296

same assay, conditions: first compound 1 µM

Cell Line	relative viability
NCI-H838	0.333
NCI-H1650	0.185
EBC-1	0.379
NCI-H1703	0.198
NCI-H1993	0.473
NCI-H2087	0.302
PC-14	0.666
LCLC-103H	0.978
NCI-H596	0.977
NCI-H2228	0.22
EMC-BAC-2	0.196
NCI-H2085	0.354
Calu-6	0.405
HCC-366	0.0399
NCI-H1666	0.242
NCI-H647	0.147
NCI-H2126	0.659
H3255	0.383
COR-L23	0.342
IA-LM	0.522
HCC-44	0.418
NCI-H727	0.659
NCI-H1299	0.821
NCI-H1792	0.581
NCI-H1563	0.605
ABC-1	0.237

compound: COc1cc([C@@H]2c3cc4c(cc3[C@@H](O[C@@H]3O[C@@H]5CO[C@@H](C)O[C@H]5[C@H](O)[C@H]3O)[C@H]3COC(=O)[C@H]23)OCO4)cc(OC)c1O [Etoposide] + O=C(CCCCCCC(=O)Nc1ccccc1)NO [Vorinostat] (partner 1 µM); test: as above; details: first compound 0.01 µM
Outline: as §1

Cell Line	relative viability
NCI-H522	0.934
NCI-H838	0.74
NCI-H1650	0.428
NCI-H2087	1.08
PC-14	0.762
LCLC-103H	0.745
NCI-H596	0.52
NCI-H2228	0.577
EMC-BAC-2	0.636
NCI-H2085	0.762
HCC-366	0.353
NCI-H1666	0.94
NCI-H647	0.467

Reference: the supplement of paper PMC10307832
